The values that follow come from patent US20110281945A1, “GASTRIC ACID SECRETION INHIBITOR, AND POTASSIUM CHANNEL INHIBITOR” (priority 2009, published 2011).

The subject of one assay is Cl^− secretion. Briefly: Short-circuit current (Isc) measurement with Ussing chambers, large-intestinal (cecum) mucosa specimen. The format is cell-based, mouse. An excerpt:
A mouse was killed by cervical vertebra dislocation. After abdominal incision, the cecum was extracted. The boundary parts of the cecum with the small intestine and the large intestine were cut to extract the cecum. The cecum was cut open with scissors into a sheet. In order to completely remove the contents, the cecum was pinched with tweezers and washed with replacement fluid. Replacement fluid was placed in a petri dish covered with rubber, and the cecum was attached thereon with the serosa side up. The muscular layer was separated using tweezers while constantly aerating the replacement fluid in the petri dish with 95% O2/5% CO2 to prepare a specimen composed of the mucosa and the submucosa. This specimen was divided into four pieces for use in the experiment.
The mucosa specimen was placed between two Ussing-type chambers each having a window with an area of 0.2 cm^2 and containing 5 mL of replacement fluid. For the measurement of the electrical potential difference, a pair of calomel electrodes was connected to both chambers through 1 M KCl/2% agar salt bridges. For energization, Ag/AgCl electrodes connected through 1 M NaCl/2% agar salt bridges were installed. These electrodes were connected to a voltage clamp apparatus, and the short-circuit current (Isc) was measured. As for Isc, current flowing from the mucosa side to the serosa side was determined as being positive.
Tetrodotoxin (TTX) was administered to the serosa side to block the nerve, and then forskolin (FK) was administered to the serosa side. […] At least part of this cAMP-dependent increase in Isc is attributable to the activation of a Cl^− secretion mechanism.
Subsequently, the compound 1 was administered to the serosa side to decrease Isc (to suppress Cl^− secretion). […] Lastly, a Na^+.K^−.2Cl cotransporter inhibitor (which inhibits Cl^− secretion) was administered to the serosa side to observe a slight decrease in Isc.

A further assay has as its system gastric acid secretion. The experiment in a line: Gastric acid secretion measurement with Ussing chambers, stomach specimen stimulated with histamine. It is filed as cell-based, mouse. The note with it: for suppression of the gastric acid secretion rate: versus ground state; for Gastric acid secretion rate: histamine 1 mM on serosa side, 37° C. The protocol:
A mouse was killed by cervical vertebra dislocation. After abdominal incision, the stomach was extracted. The gastric acid secretion portion was cut out, washed with replacement fluid, and divided into two pieces.
The specimen was placed between two chambers facing each other and each having a window with an area of 0.2 cm^2 and containing 10 mL of replacement fluid. Decreases in pH of the replacement fluid in the chamber on the lumen side were successively measured using a pH electrode at 37° C. The gastric acid secretion rate was calculated from the decrease in pH measured after completion of the experiment and the previously measured buffer capacity of the replacement fluid. The experiment was conducted by previously administering histamine (1 mM) to the replacement fluid on the serosa side for stimulating gastric acid secretion.
L-Menthol and compound 1 were administered to the replacement fluid on the lumen side so that the final concentrations were 50 μM and 100 μM, respectively. The administration was performed using stock solutions each having a concentration of 1000 times that of the target final concentration and using DMSO as a solvent. Compound 1 and 1-menthol were administered at 20 minutes and at 14 minutes, respectively, from the start of the experiment.

Consider `CC1CCC(C(C)C)C(OCC(C)(O)CO)C1` (stereo not shown) [Compound 1, 2-methyl-3-(menthoxy)propane-1,2-diol], for which the “change in Isc (Cl^− secretion)” value in the assay with Cl^− secretion (administered to serosa side after TTX and forskolin (Example 1, FIG. 3)) is “decrease Isc”. Besides, the “suppression of the gastric acid secretion rate” value in the assay on gastric acid secretion (100 μM) was 75%. Also, the “Gastric acid secretion rate” value with gastric acid secretion (Example 4, 100 μM on lumen side) was determined as 0.43 micro Eq/cm^2/h.

Consider `CCS(=O)(=O)N(C)[C@H]1c2cc(C#N)ccc2OC(C)(C)[C@@H]1O` (racemic) [chromanol 293B], for which, in the assay with Cl^− secretion (chromanol 293B administered first, before compound 1 (Example 2, FIG. 4)), the Isc-suppressing reaction entry was “can be observed”.

In the case of `CC(C)[C@@H]1CC[C@@H](C)C[C@H]1O` [l-Menthol], in the assay on Cl^− secretion (chromanol 293B administered in advance (Examples 2 and 3, FIG. 4 and 5)), the “decrease in Isc” value is reported as “did not decrease the Isc”. The “suppression of the gastric acid secretion rate” value in the assay with gastric acid secretion (50 μM) was determined as 57%. The “Gastric acid secretion rate” value in the assay with gastric acid secretion (Example 5, 50 μM on lumen side) is 0.64 micro Eq/cm^2/h.
